Measured values taken from publication PMC6743422, “Preclinical disposition of MGS0274 besylate, a prodrug of a potent group II metabotropic glutamate receptor agonist MGS0008 for the treatment of schizophrenia” (Pharmacology Research & Perspectives, 2019).
“And” between values parts separate entries of the source, which are not always exact repeats. Equal entries are not always repeated. “Also recorded” adds a separate entry of the source. Where two headings read alike, the source gives them in different places.

Key:
[1] = system: rat cryopreserved hepatocytes; assay: In vitro metabolite profiling in rat cryopreserved hepatocytes; type: in vitro ADME; conditions: rat hepatocytes
Protocol: Rat, monkey, or human cryopreserved hepatocytes in Leivovitz L‐15 medium at 0.5 million cells/mL were incubated at 37°C for 1 hour with [^14C]MGS0274 besylate at 10 μmol/L. The reaction was terminated by adding 10% w/v trichloroacetic acid solution, and the resultant mixture was centrifuged. Aliquots of the supernatant were subjected to bioanalysis using high‐performance liquid chromatography equipped with radiochemical flow detection (RI‐HPLC) (see Table S1‐B). Aliquots of the supernatant from unlabeled incubation samples and authentic standards were also injected into a liquid chromatography‐mass spectrometry (LC‐MS) system under the same chromatographic conditions to compare their chromatographic retention times and mass spectral data (see Table S1‐B).

[2] = target: CYP3A (Homo sapiens, UniProt P08684); assay: CYP inhibition in human liver microsomes, CYP3A; type: in vitro ADME; conditions: probe testosterone (6β-hydroxytestosterone formation), human liver microsomes 0.1 mg/mL, metabolite 6β-Hydroxytestosterone
Chain of CYP3A (P08684 2-503): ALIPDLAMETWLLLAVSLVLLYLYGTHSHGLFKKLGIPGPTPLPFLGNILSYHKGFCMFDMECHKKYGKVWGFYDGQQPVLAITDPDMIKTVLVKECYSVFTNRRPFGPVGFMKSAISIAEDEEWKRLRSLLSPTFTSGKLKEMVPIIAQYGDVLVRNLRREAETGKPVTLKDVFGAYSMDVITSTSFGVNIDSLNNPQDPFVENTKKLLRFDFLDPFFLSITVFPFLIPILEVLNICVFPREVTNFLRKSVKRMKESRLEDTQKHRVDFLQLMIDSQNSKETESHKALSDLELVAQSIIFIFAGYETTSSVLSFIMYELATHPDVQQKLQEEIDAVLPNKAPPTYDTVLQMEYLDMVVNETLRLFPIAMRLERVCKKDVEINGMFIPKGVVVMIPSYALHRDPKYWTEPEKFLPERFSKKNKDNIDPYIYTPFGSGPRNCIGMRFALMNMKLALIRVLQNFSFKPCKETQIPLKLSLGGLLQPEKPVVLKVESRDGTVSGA
Protocol: The inhibition potential of MGS0008 (0.3‐100 µmol/L) and MGS0274 besylate (0.03‐10 µmol/L) on the activity of human cytochrome P450 (CYP) isoforms (CYP1A2, 2B6, 2C8, 2C9, 2C19, 2D6, and 3A) was investigated using probe substrates for each CYP isoform and human liver microsomes, of which the final protein concentration was set at 0.1 mg/mL (see Table S2). The assay was started by spiking the reaction mixture, which had been pre‐incubated at 37°C for 5 minutes, with NADP^+. After incubation for 5 to 10 minutes, the reaction was terminated by adding acetonitrile containing an internal standard for each probe substrate, and the resultant mixture was centrifuged. Aliquots of the supernatant were subjected to bioanalysis using LC‐MS/MS (see Table S1‐D).
The final protein concentration in the reaction mixture was set at 0.1 mg/mL. The values in parentheses represent the final concentrations of compounds added in each reaction mixture. […]

[3] = Plasma and CSF distribution of MGS0008 in rats; type: in vivo; conditions: Wistar, rat, fasted male rats, MGS0008 oral 3 mg/kg
Protocol: (§1) The pharmacokinetic profiles of MGS0008 and MGS0274 were investigated in fasted male Wistar rats (n = 3) and fed male cynomolgus monkeys (n = 4). Monkeys had been given 60 g of a primate diet (PS‐A; Oriental Yeast, Tokyo, Japan) one hour before administration. For intravenous administration, MGS0008 was dissolved in saline (pH7.4) and administered to rats (3 mg/kg) and monkeys (1 mg/kg). Blood samples were collected from the tail vein (rats) or the forelimb cephalic vein (monkeys) into tubes containing EDTA‐2K at 5, 15, and 30 minutes and at 1, 2, 4, 8, and 24 hours postdose for both species, and an additional sample was collected at 12 hours postdose for monkeys. Urine samples were collected until 48 hours at 24‐hour intervals (rats) or at 0‐ to 8‐hour, 8‐ to 24‐hour, and 24‐ to 48‐hour intervals (monkeys). The plasma or urine samples was mixed with acetonitrile/methanol (9:1, v/v) containing [^13C2 ^15N]MGS0008 and centrifuged. Aliquots of the supernatant were subjected to bioanalysis using LC‐MS/MS (see Table S1‐E). For oral administration, MGS0008 was dissolved in distilled water (rats) or 0.5% w/v methylcellulose 400 (monkeys) and administered to rats (3 mg/kg) and monkeys (1 mg/kg). MGS0274 besylate was suspended in 0.5% w/v methylcellulose 400 containing 0.1% v/v Tween 80 and administered to monkeys at a dose of 2.89 mg/kg (1‐mg equivalent of MGS0008/kg). Blood samples were collected from the tail vein (rats) or the forelimb cephalic vein (monkeys) into tubes containing EDTA‐2K at 30 minutes, 1, 1.5, 2, 4, 6, 8, and 24 hours postdose for rats, and 30 minutes, 1, 2, 4, 8, 12, and 24 hours postdose for monkeys. The plasma samples were mixed with acetonitrile/methanol (9:1, v/v) containing internal standards ([^13C2 ^15N]MGS0008 and MGS0039) and centrifuged. Aliquots of the supernatant were subjected to bioanalysis using LC‐MS/MS (see Tables S1‐E and F). In the study examining the tissue distribution of MGS0008 in rats (3 mg/kg), blood samples were collected from the posterior vena cava into tubes containing EDTA‐2K under isoflurane anesthesia at 1.5, 4, 6, or 24 hours postdose. Then, the animals were euthanized by exsanguination from the abdominal aorta; cerebrospinal fluid (CSF) samples were drawn from the spinal cord space in each animal. The plasma or CSF was mixed with acetonitrile/methanol (9:1, v/v) containing [^13C2 ^15N]MGS0008 and centrifuged. Aliquots of the supernatant were subjected to bioanalysis using LC‐MS/MS (see Table S1‐E).
(§2) The plasma concentration‐time profiles of MGS0008 and MGS0274 were analyzed using a non‐compartmental analysis method with pharmacokinetic analysis software Phoenix® WinNonlin® 6.2 or later (Certara, Princeton, NJ).

[4] = Pharmacokinetics of MGS0008 in monkeys (intravenous or oral); type: in vivo, cynomolgus monkey; conditions: fed male monkeys; for AUC(0-t): read-out: AUC0–24h
Protocol: as §1, §2

[5] = Prediction of human pharmacokinetic parameters by single-species allometric scaling
Protocol: The prediction of CLtotal, Vdss, and t1/2 in humans was performed using single‐species allometric scaling methods 14 with the pharmacokinetic parameters obtained from the intravenous administration of MGS0008 to rats and monkeys, unbound fraction of MGS0008 in rat, monkey, and human plasma (1.0), and body weight of rats (0.3 kg), monkeys (5 kg), and humans (60 kg).

[6] = system: phencyclidine-induced locomotor hyperactivity; conditions: rat, oral 3 mg/kg; cited from earlier work
[7] = system: conditioned avoidance responses; conditions: rat; cited from earlier work
[8] = CSF, read-out: CSF concentration
[9] = plasma, read-out: Plasma concentration
[10] = cynomolgus monkey, MGS0008 intravenous 1 mg/kg, plasma
[11] = cynomolgus monkey, MGS0008 oral 1 mg/kg, plasma
[12] = single-species allometric scaling from the monkey data
[13] = single-species allometric scaling from the rat data

For `N[C@]1(C(=O)O)[C@H]2[C@@H](C[C@@H]1F)[C@@H]2C(=O)O` [MGS0008, (1S,2S,3S,5R,6S)‐2‐amino‐3‐fluorobicyclo[3.1.0]hexane‐2,6‐dicarboxylic acid], the “further metabolism of MGS0008 in hepatocytes” value [1] was “no metabolites”, the IC50 [2] was > 100 µM and the Kp ([3]; CSF/plasma, read-out: CSF/plasma AUC ratio) was 0.028. For the same compound, the concentration at 1.5 h [3, 8] was 19.1 ± 5.08 ng/mL, the concentration at 4 h [3, 8] was 7.88 ± 1.04 ng/mL and the concentration at 6 h [3, 8] was 4.84 ± 0.384 ng/mL. For the same compound, the concentration at 24 h [3, 8] was 2.04 ± 0.0265 ng/mL, the AUC(0-t) ([3]; CSF, read-out: AUC0–24h in CSF) was 123 ± 7.37 ng·h/mL and the concentration at 1.5 h [3, 9] was 1980 ± 431 ng/mL. The concentration at 4 h [3, 9] was 138 ± 64.2 ng/mL, the concentration at 6 h [3, 9] was 6.23 ± 1.83 ng/mL and the concentration at 24 h ([3]; plasma, below lower limit of quantification, read-out: Plasma concentration) was < 3 ng/mL. The AUC(0-t) ([3]; plasma, read-out: AUC0–24h in plasma) was 4330 ± 719 ng·h/mL, the concentration at 24 h ([4]; cynomolgus monkey, plasma, MGS0008 intravenous 1 mg/kg, below lower limit of quantification) was < 3 ng/mL and the clearance ([4]; cynomolgus monkey, plasma, MGS0008 intravenous 1 mg/kg, mean ± SD (n = 4), read-out: CLtotal (converted)) was 2.15 mL/min/kg. For the same compound, the Vd ([4]; cynomolgus monkey, plasma, MGS0008 intravenous 1 mg/kg, mean ± SD (n = 4), read-out: Vdss) was 0.181 ± 0.0214 L/kg, the bioavailability ([4]; cynomolgus monkey, plasma, MGS0008 oral 1 mg/kg, AUC0-24h oral / AUC0-24h intravenous × 100) was 3.8 ± 2.8% and the CL renal ([4]; cynomolgus monkey, urine and plasma, MGS0008 intravenous 1 mg/kg) was 2.07 mL/min/kg. It also gave a half-life [4, 10] of 88.8 ± 2.61 min, an AUC(0-t) [4, 10] of 7830 ± 776 ng·h/mL and a Cmax [4, 11] of 20.5 ± 11.5 ng/mL. For the same compound, the Tmax [4, 11] was 9 ± 10 h, the AUC(0-t) [4, 11] was 281 ± 177 ng·h/mL and the vomiting ([4]; MGS0008 intravenous 1 mg/kg) was “three of the four monkeys experienced transient vomiting”. The “Urinary excretion (unchanged form)” value ([4]; MGS0008 intravenous 1 mg/kg, within 48 hours, % of administered dose, 1 mg/kg) was 96.4% and 96.4 ± 7.51%, the “predicted CLtotal in humans” value [5, 12] was 69.3 mL/h/kg and the “predicted Vdss in humans” value [5, 12] was 181 mL/kg. For the same compound, the “predicted t1/2 in humans” value [5, 12] was 1.8 h, the “predicted CLtotal in humans” value [5, 13] was 146 mL/h/kg and the “predicted Vdss in humans” value [5, 13] was 545 mL/kg. For the same compound, the “predicted t1/2 in humans” value [5, 13] was 2.6 h, the phencyclidine-induced locomotor hyperactivity [6] was “inhibited; also recorded: significantly decreased” and the conditioned avoidance responses [7] was “reduced”.
